Measured values from patent publication US10844420B2, “Method for detecting slow-VISA” (priority 2016, dated 2020).

Legend:
Format in all cases: cell-based, Staphylococcus aureus
VISA = assay: Growth of VISA in liquid medium containing VCM with or without mupirocin; conditions: FIG. 1(b)
From the text: (§1) From FIG. 1(b), when VISA was used, an increase in the growth rate by the addition of mupirocin was not observed.

slow-VISA [1] = assay: Disk diffusion method of VCM on BHI agar medium with or without mupirocin; conditions: 30 μg/mL vancomycin disks, BHI agar containing 0.032 μg/mL of mupirocin, culture for 48 hours
Description: The disk diffusion method using […] vancomycin disks was separately performed on BHI agar media containing 0.032 μg/mL of mupirocin or BHI agar media in the absence of a drug. […] The values shown above the panels indicate the averages and standard deviations of the diameters of inhibitory zones.

slow-VISA [2] = assay: ETEST of VCM on BHI medium added with mupirocin, slow-VISA; conditions: BHI medium added with mupirocin at a concentration at which growth was not suppressed
Description: The pictures on the left show the results of a mupirocin-free medium after 96 hours, the pictures on the right show the results of a mupirocin-containing medium after 96 hours, and black arrows show the points after 48 hours.
(§2) (2) The bacteria grown in step (a) is adjusted to OD=0.3 using an absorbance measuring instrument (wavelength of 578 nm), and it was set as 1×10^8 cells. Then, the bacteria are spread on a BHI agar medium of Eiken Chemical Co., Ltd. and a mupirocin-containing BHI agar medium, and the ETEST® strips (bioMerieux Japan Ltd.) of VCM and cefoxitin are placed thereon, followed by culture for 48 hours in accordance with the CLSI guideline. After 48 hours, tested bacteria having a MIC of cefoxitin of ≥8 μg/mL and a MIC of VCM of >6 μg/mL are suspected to be slow-VISA.
(§3) Further, it was supposed that the resistance further increased when the stringent response relating to those mutated genes was induced.

slow-VISA [3] = assay: Growth of slow-VISA in liquid medium containing VCM with or without mupirocin
From the text: In the figure, MUP indicates mupirocin.
as §1

[4] = tested on: vancomycin-sensitive strain; assay: ETEST of VCM on BHI medium added with mupirocin, vancomycin-sensitive strain; conditions: BHI medium added with mupirocin at a concentration at which growth was not suppressed
Description: as §2, §3

SMILES: C/C(=C\C(=O)OCCCCCCCCC(=O)O)C[C@@H]1OC[C@H](C[C@@H]2O[C@H]2[C@@H](C)[C@H](C)O)[C@@H](O)[C@H]1O [mupirocin]
- increase in the growth rate by the addition of mupirocin (VISA): not observed
- colonies around inhibitory zone (slow-VISA [1]): Small numerous colonies were detected
- degree of resistance (ETEST of VCM) (slow-VISA [2]): increased
- difference in OD values (slow-VISA [3]; 0.032 μg/mL mupirocin and 16 μg/mL VCM versus comparison media, in 24 hours): ≥ 1
- growth rate versus culture in mupirocin-free liquid medium or medium with growth-affecting mupirocin concentration and 8 μg/mL of VCM (slow-VISA [3]; liquid medium, 0.032 μg/mL mupirocin and 16 μg/mL of VCM): larger
- degree of resistance (ETEST of VCM) [4]: did not increase
